# Measurements as given in article PMC3682423 (The FEBS journal, 2011).
# Key:
# [1] = molecular target: isolated HIV RNase H domain (p15) (Human immunodeficiency virus type 1 group M subtype B, UniProt P03366); assay: Quenching of intrinsic fluorescence of the isolated RNase H domain; type: binding, HIV-1
# [2] = molecular target: wt HIV-1 RT-associated RNase H activity (Human immunodeficiency virus type 1 group M subtype B, UniProt P03366); assay: biochemical; type: biochemical
# [3] = molecular target: Y181C RT RDDP (Human immunodeficiency virus type 1 group M subtype B, UniProt P03366, Y780C); assay: biochemical; parameters: species or system HIV-1
# [4] = molecular target: wt HIV-1 RT-associated RDDP activity (Human immunodeficiency virus type 1 group M subtype B, UniProt P03366); assay: biochemical
# [5] = molecular target: K103N RT RDDP (Human immunodeficiency virus type 1 group M subtype B, UniProt P03366, K702N); assay: biochemical; parameters: species or system HIV-1
# [6] = molecular target: K103N RT RNase H (Human immunodeficiency virus type 1 group M subtype B, UniProt P03366, K702N); assay: biochemical; parameters: species or system HIV-1
# [7] = molecular target: Y181C RT RNase H (Human immunodeficiency virus type 1 group M subtype B, UniProt P03366, Y780C); assay: RNase H polymerase-independent cleavage assay, Y181C RT; type: biochemical, HIV-1
Compound,IC50 [1] [µM],IC50 [2] [µM],inhibition of wt RT-associated RNase H function (in words) ([2]; wt RT),IC50 [3] [µM],IC50 [4] [µM],IC50 [5] [µM],IC50 [6] [µM],IC50 [7] [µM]
"O=C1Cc2ccccc2C(=O)N1O [2-hydroxy-1,2,3,4-tetrahydroisoquinoline-1,3-dione]",52,–,–,–,–,–,–,–
"O=C1c2ccccc2C(=O)c2c1ccc(O)c2O [Alizarine, alizarine]",–,> 100,inactive,> 100,79 ± 8,68 ± 5,> 100,> 100
